Measurements as given in patent US10633350B2, “Diphenyl derivatives and uses thereof” (NOVARTIS AG, priority 2017, dated 2020).

Tests used:
FoxO3a = FoxO3a inhibition assay (GFP-FoxO3a nuclear to cytoplasmic translocation) in U2OS GFP-FoxO3a H212R reporter cells; assay type: cell-based; details: Homo sapiens, 0.5 h, serum starved overnight, 30 minutes compound treatment, ratio of nuclear to cytosolic GFP intensity, AC50 = concentration that results in 50% activation or inhibition, read-out: FoxO AC50
Protocol: (§1) Phosphorylation of Akt on S473 and FoxO3a nuclear to cytoplasmic translocation were used as readouts of PI3K/Akt/mTOR pathway activation downstream of growth factor signaling.
(§2) Reporter cell line. U2OS GFP-FoxO3a H212R reporter cell line was established by transducing U2OS cells with the retroviral plasmid pLEGFP-C1 containing FoxO3a H212R transgene and selecting for G418 resistant clones.
(§3) Reporter assay. U2OS GFP-FoxO3a H212R cells were plated in 384-well plates at 4000 cells per well in 30 microliters of McCoy's 5A medium containing 10% FBS. On day 1 the cells were washed with serum free medium and serum starved overnight. On day 2 the cells were treated with different doses of the compounds for 30 minutes, fixed with 4% Paraformaldehyde for 1 hour and stained with Phospho-AKT (Ser473) antibody (Cell Signaling Technology, catalog #4060) overnight at 4° C. After nuclei staining with Hoechst 33342 (Life Technologies, catalog # H3570) the plates were imaged with InCell 2000 (GE Healthcare Bio-Sciences). FoxO3a inhibition activity is calculated as the ratio of nuclear to cytosolic GFP intensity in percent. Akt activation is measured as the total cellular intensity of Phospho-Akt antibody staining in percent. DMSO control is set as 0% activity.

Akt = Akt activation assay (Phospho-AKT (Ser473) antibody staining) in U2OS GFP-FoxO3a H212R reporter cells; assay type: cell-based; details: Homo sapiens, 0.5 h, serum starved overnight, 30 minutes compound treatment, total cellular intensity of Phospho-Akt (Ser473) antibody staining, AC50 = concentration that results in 50% activation or inhibition
Protocol: as §1, §2, §3

| Compound | AC50 (FoxO3a) | AC50 (Akt) |
| --- | --- | --- |
| Cc1cc(C(N)=O)nn1-c1ccc(Cc2ccc(-c3ccccc3)cc2)cc1 [Example 3-8, 1-(4-([1,1′-biphenyl]-4-ylmethyl)phenyl)-5-methyl-1H-pyrazole-3-carboxamide] | 383 nM | 960 nM |
| Cc1cc(C(N)=O)nn1-c1ccc(C(C)(C)c2ccc(-c3ccc(C4(CN)COC4)cc3)cc2)cc1 [Example 11, 1-(4-(2-(4′-(3-(aminomethyl)oxetan-3-yl)-[1,1′-biphenyl]-4-yl)propan-2-yl)phenyl)-5-methyl-1H-pyrazole-3-carboxamide] | 607 nM | 1190 nM |
| Cc1nc(C(N)=O)nn1-c1ccc(C(C)(C)c2ccc(-c3cnc4c(c3)OCCN4C)cc2)cc1 [Example 13-11] | 416 nM | 1000 nM |
| Cc1cc(C(N)=O)nn1-c1ccc(Cc2ccc(-c3ccc(CN(C)C)nc3)cc2)cc1 [Example 5-3, 1-(4-(4-(6-((dimethylamino)methyl)pyridin-3-yl)benzyl)phenyl)-5-methyl-1H-pyrazole-3-carboxamide] | 136 nM | 425 nM |
| Cc1nc(C(N)=O)nn1-c1ccc(C(C)(C)c2ccc(-c3ccsc3)cc2)cc1 [Example 13-16] | 377 nM | 926 nM |
| Cc1cc(C(N)=O)nn1-c1ccc(Cc2ccc(-c3ccc4c(c3)CCN(C)C4)cc2)cc1 [Example 3-3, 5-methyl-1-(4-(4-(2-methyl-1,2,3,4-tetrahydroisoquinolin-6-yl)benzyl)phenyl)-1H-pyrazole-3-carboxamide] | 40 nM | 109 nM |
| Cc1nc(C(N)=O)nn1-c1ccc(C(C)(C)c2ccc(-c3ccc(CN4CCCC4)cc3)cc2)cc1 [Example 13-1, 5-methyl-1-(4-(2-(4′-(pyrrolidin-1-ylmethyl)-[1,1′-biphenyl]-4-yl)propan-2-yl)phenyl)-1H-1,2,4-triazole-3-carboxamide] | 128 nM | 375 nM |
| Cc1nc(C(N)=O)nn1-c1ccc(Cc2ccc(-c3ccc(C(=O)NCC(C)(C)O)cc3)cc2)cc1 [Example 51, 1-(4-((4′-((2-hydroxy-2-methylpropyl)carbamoyl)-[1,1′-biphenyl]-4-yl)methyl)phenyl)-5-methyl-1H-1,2,4-triazole-3-carboxamide] | 102 nM | 300 nM |
| Cc1cc(C(N)=O)nn1-c1ccc(Cc2ccc(-c3ccc(CN4CCNCC4)nc3)cc2)cc1 [Example 31-1, 5-methyl-1-(4-(4-(6-(piperazin-1-ylmethyl)pyridin-3-yl)benzyl)phenyl)-1H-pyrazole-3-carboxamide] | 77 nM | 354 nM |
| Cc1cc(C(N)=O)nn1-c1ccc(Cc2ccc(-c3ccc(CN4CCCCC4)cc3)cc2)cc1 [Example 16-6] | 103 nM | 248 nM |
| Cc1cc(C(N)=O)nn1-c1ccc(Cc2ccc(-c3ccc([C@@H]4CCCN4C)cc3)cc2)cc1 [Example 5-8, (S)-5-methyl-1-(4-((4′-(1-methylpyrrolidin-2-yl)-[1,1′-biphenyl]-4-yl)methyl)phenyl)-1H-pyrazole-3-carboxamide] | 76 nM | 145 nM |
| Cc1nc(C(N)=O)nn1-c1ccc(Cc2ccc(-c3ccc(CN4CC5(COC5)C4)cc3)cc2)cc1 [Example 38-4] | 62 nM | 207 nM |
| Cc1nc(C(N)=O)nn1-c1ccc(C(C)(C)c2ccc(-c3ccc(N4CCOCC4)nc3)cc2)cc1 [Example 13-15] | 114 nM | 493 nM |
| Cc1nc(C(N)=O)nn1-c1ccc(Cc2ccc(-c3ccc(CN4CCC[C@@H]4CO)cc3)cc2)cc1 [Example 38-5] | 26 nM | 27 nM |
| Cc1nc(C(N)=O)nn1-c1ccc(C(C)(C)c2ccc(-c3ccc4ncccc4c3)cc2)cc1 [Example 13-3] | 311 nM | 943 nM |
| Cc1nc(C(N)=O)nn1-c1ccc(Cc2ccc(-c3ccc(C(=O)N4CCNCC4)cc3)cc2)cc1 [Example 25, 5-methyl-1-(4-((4′-(piperazine-1-carbonyl)-[1,1′-biphenyl]-4-yl)methyl)phenyl)-1H-1,2,4-triazole-3-carboxamide] | 135 nM | 726 nM |
| Cc1nc(C(N)=O)nn1-c1ccc(Cc2ccc(-c3ccc(CN4CCN(C)CC4)nc3)cc2)cc1 [Example 34, 5-methyl-1-(4-(4-(6-((4-methylpiperazin-1-yl)methyl)pyridin-3-yl)benzyl)phenyl)-1H-1,2,4-triazole-3-carboxamide] | 300 nM | 576 nM |
| Cc1nc(C(N)=O)nn1-c1ccc(Cc2ccc(-c3ccc(CN4CCC(C)(C)C4)cc3)cc2)cc1 [Example 38-7] | 15 nM | 31 nM |
| Cc1cc(C(N)=O)nn1-c1ccc(Cc2ccc(-c3ccc(CN4CCNCC4)cn3)cc2)cc1 [Example 31-3, 5-methyl-1-(4-(4-(5-(piperazin-1-ylmethyl)pyridin-2-yl)benzyl)phenyl)-1H-pyrazole-3-carboxamide] | 158 nM | 190 nM |
| Cc1cc(C(N)=O)nn1-c1ccc(Cc2ccc(-c3ccc4c(c3)CN(C)C4)cc2)cc1 [Example 3-13, 5-methyl-1-(4-(4-(2-methylisoindolin-5-yl)benzyl)phenyl)-1H-pyrazole-3-carboxamide] | 57 nM | 167 nM |
| Cc1nc(C(N)=O)nn1-c1ccc(Cc2ccc(-c3ccc(CN4CCCC4)cc3)cc2)cc1 [Example 15-4] | 33 nM | 99 nM |
| Cc1nc(-c2ccc(Cc3ccc(-n4nc(C(N)=O)cc4C)cc3)cc2)ccc1C(C)(C)O [Example 20, 1-(4-(4-(5-(2-hydroxypropan-2-yl)-6-methylpyridin-2-yl)benzyl)phenyl)-5-methyl-1H-pyrazole-3-carboxamide] | 91 nM | 208 nM |
| Cc1nc(C(N)=O)nn1-c1ccc(Cc2ccc(-c3ccc(S(=O)(=O)NCC(C)(C)O)cn3)cc2)cc1 [Example 52, 1-(4-(4-(5-(N-(2-hydroxy-2-methylpropyl)sulfamoyl)pyridin-2-yl)benzyl)phenyl)-5-methyl-1H-1,2,4-triazole-3-carboxamide] | 106 nM | 749 nM |
| Cc1nc(C(N)=O)nn1-c1ccc(Cc2ccc(-c3ccc(S(=O)(=O)NCC(C)(C)O)cc3)cc2)cc1 [Example 50, 1-(4-((4′-(N-(2-hydroxy-2-methylpropyl)sulfamoyl)-[1,1′-biphenyl]-4-yl)methyl)phenyl)-5-methyl-1H-1,2,4-triazole-3-carboxamide] | 36 nM | 117 nM |
| Cc1cc(C(N)=O)nn1-c1ccc(Cc2ccc(C3=CCN(C(=O)CN(C)C)CC3)cc2)cc1 [Example 3-11, 1-(4-(4-(1-(dimethylglycyl)-1,2,3,6-tetrahydropyridin-4-yl)benzyl)phenyl)-5-methyl-1H-pyrazole-3-carboxamide] | 132 nM | 504 nM |
| Cc1nc(C(N)=O)nn1-c1ccc(Cc2ccc(-c3ccc(CN4CCC(C)(C)CC4)cc3)cc2)cc1 [Example 38-10] | 175 nM | 397 nM |
| Cc1cc(C(N)=O)nn1-c1ccc(Cc2ccc(-c3ccc(CC4CCCN4CO)cc3)cc2)cc1 (centres unmarked) [Example 16-7] | 9 nM | 24 nM |
| Cc1cc(C(N)=O)nn1-c1ccc(C(C)(C)c2ccc(-c3cccc(S(C)(=O)=O)c3)cc2)cc1 [Example 6-2, 5-methyl-1-(4-(2-(3′-(methylsulfonyl)-[1,1′-biphenyl]-4-yl)propan-2-yl)phenyl)-1H-pyrazole-3-carboxamide] | 480 nM | 1810 nM |
